From US11174223B2, “Compositions, methods, and systems for the synthesis and use of imaging agents” (Lantheus Medical Imaging, Inc., priority 2010, dated 2021)

Key:
[1] = Tissue biodistribution by tissue sampling in rabbits; type: in vivo
Experimental: (§1) Imaging agent-1 was designed as a substrate for the norepinephrine transporter (NET) to image the cardiac sympathetic nervous system. […] These values were similar to that of MIBG (2.12±0.26 μM and 4.76±0.78 pmol/min/million cells). In animals, tissue biodistribution of imaging agent-1 was assessed by tissue sampling at 15- and 60-minute following administration. Heart uptake was 2.36±0.16 and 2.17±0.12% injected dose per g tissue (% ID/g) in rats and 0.25±0.03 and 0.28±0.03% ID/g in rabbits. In rabbits, desipramine (1 mg/kg) inhibited heart uptake of imaging agent-1 by 68% and ^123I-MIBG uptake by 55% at 1 hour post dose.

[2] = target: T1, norepinephrine transporter (NET), uptake 1 (Oryctolagus cuniculus, UniProt G1TDF9); test: Heart uptake in rabbits after uptake 1 blockade (desipramine) or 6-hydroxydopamine sympathetic denervation; type: in vivo; conditions: rabbits
T1 construct: from tissue; host or cells: rabbit heart, in vivo
Experimental: as §1
(§2) Desipramine, a selective uptake 1 inhibitor, was used to block cardiac uptake 1 in rats (10 mg/kg, ip), rabbits (1 mg/kg iv), and NHPs (0.5 mg/kg, iv). 6-hydroxydopamine, a neurotoxin, was injected to induce sympathetic denervation in rats (100 mg/kg ip for 7 days) and rabbits (25 mg/kg iv on day 1, 2, 7, and 8). Imaging agent-1 heart uptake in comparison with MIBG was assessed by tissue sampling at 60 minutes post imaging agent injection. Imaging was also performed with (2-tert-butyl-4-chloro-5-[4-(2-[^18F]fluoroethoxymethyl)-benzyloxy]-2H-pyridazin-3-1.

[3] = target: T2, norepinephrine transporter (NET) (Homo sapiens, UniProt P23975); test: Uptake and uptake kinetics in SH-SY5Y human neuroblastoma cells; type: cell-based
T2 construct: endogenous in cells; host or cells: SH-SY5Y
Experimental: as §1

[4] = Whole organ bio-distribution and dosimetry from PET in healthy subjects; type: in vivo, human
Experimental: Whole organ bio-distribution and dosimetry for ^18F-labeled imaging agent-1 were determined based on PET image data from twelve healthy subjects. Image quantification, kinetic modeling to determine residence times, and dosimetry analysis were performed.
Head to mid-thigh PET image data for twelve healthy subjects were obtained using ^18F labeled imaging agent-1 at approximately 17, 31, 45, 117, 190, and 225 minutes post injection. Additionally, leg images were also obtained at approximately 66 and 274 minutes post injection. Image data were attenuation corrected at the imaging site, and were quantified based on the Medical Internal Radiation Dosimetry (MIRD) 16 methodology to determine kinetic data in all organs showing significant uptake of activity. Dosimetry estimates were created via kinetic modeling of the quantified image data to determine residence times, and the standard MIRD methodology using a method similar. Kinetic data, residence times, and the dosimetry estimates were reported for each subject and as summary statistics.

[5] = Dosimetry in non-human primates to estimate human radiation dosimetry; type: in vivo, cynomolgus monkeys
Experimental: Dosimetry in non-human primates of imaging agent-1 was examined. Imaging agent-1, which is labeled with ^18F, is a novel norepinephrine transporter (NET) ligand and was a useful radiotracer for mapping the cardiac nerve terminal in vivo using positron emission tomography. A study was performed in four non-human primates to estimate human radiation dosimetry.
In this study two male and two female cynomolgus monkeys were imaged using a Concord Focus 220 MicroPET scanner for whole body ^18F distribution following 4 to 5 mCi (0.65 to 1.6 μg) single intravenous injection of imaging agent-1. Under isoflurane anesthesia, images of the animals from head to lower abdomen were acquired in 5 segments over four and half hours following injection. Radioactivity in identifiable organs and the remainder of the body was determined as a function of time using region-of-interest analysis. The total number of disintegrations per unit injected dose was determined by normalizing by the injected radioactivity and integrating over time the data for radioactivity versus time. Using the OLINDA/EXM software (Organ Level Internal Dose Assessment/EXponential Modeling Software, published by Vanderbilt University), the normalized number of ^18F disintegrations for each organ was combined with the energy released by each disintegration, and using the MIRD schema, estimates were made of the fraction of the total released energy that was retained in each source organ and the contribution from each source organ to the energy deposited in surrounding target organs for an adult human. Dividing the total fractional energy deposited in each organ by the corresponding organ mass yielded the radiation dose for that organ per unit (mCi or MBq) injected dose.

[6] = Cardiac PET imaging in rabbit models of regional and systemic cardiac sympathetic denervation (CSD); type: in vivo, rabbits
Experimental: Rabbit models of regional and systemic CSD were used. To develop regional CSD, a median sternotomy was performed and phenol (89% in liquid) was pained on the anterior and posterior walls of the left ventricle. To develop systemic denervation the neurotoxin, 6-hydroxydopamine (25 mg/kg on day 1, 2, 7 and 8), was administered intravenously. Two weeks following these procedures, rabbits were imaged with imaging agent-1 (˜1.5 mCi, i.v.) using a microPET camera for 30 minutes.

NET = NET (Homo sapiens, UniProt P23975); test: Competition binding assay in cell membranes over-expressing human NET; set-up: expressed in transfected cells
Experimental: Imaging agent-1 was designed as a substrate for the norepinephrine transporter (NET) to image the cardiac sympathetic nervous system. […] In animals, tissue biodistribution of imaging agent-1 was assessed by tissue sampling at 15- and 60-minute following administration.
The affinity (Ki) was determined in a competition binding assay by incubating ^19F-imaging agent-1, a cold analog of imaging agent-1, or NE with ^3H-desmethylimipramine in cell membrane overexpressing human NET. […] In SK—NSH cells, the uptake kinetics (Km and Vmax) were evaluated by measuring NET mediated uptake of imaging agent-1 or NE at various concentrations. Imaging agent-1 cardiac image quality was evaluated by PET imaging (˜1.5 mCi, i.v.) in rabbits in the presence and absence of desipramine (1 mg/kg).

[7] = tested on: norepinephrine transporter (NET), uptake 1; test: Heart uptake in rats after uptake 1 blockade (desipramine) or 6-hydroxydopamine sympathetic denervation; type: in vivo; conditions: 60 minutes post injection
Experimental: as §2

[8] = estimated from cynomolgus monkey PET

T1 sequence (G1TDF9 1-617): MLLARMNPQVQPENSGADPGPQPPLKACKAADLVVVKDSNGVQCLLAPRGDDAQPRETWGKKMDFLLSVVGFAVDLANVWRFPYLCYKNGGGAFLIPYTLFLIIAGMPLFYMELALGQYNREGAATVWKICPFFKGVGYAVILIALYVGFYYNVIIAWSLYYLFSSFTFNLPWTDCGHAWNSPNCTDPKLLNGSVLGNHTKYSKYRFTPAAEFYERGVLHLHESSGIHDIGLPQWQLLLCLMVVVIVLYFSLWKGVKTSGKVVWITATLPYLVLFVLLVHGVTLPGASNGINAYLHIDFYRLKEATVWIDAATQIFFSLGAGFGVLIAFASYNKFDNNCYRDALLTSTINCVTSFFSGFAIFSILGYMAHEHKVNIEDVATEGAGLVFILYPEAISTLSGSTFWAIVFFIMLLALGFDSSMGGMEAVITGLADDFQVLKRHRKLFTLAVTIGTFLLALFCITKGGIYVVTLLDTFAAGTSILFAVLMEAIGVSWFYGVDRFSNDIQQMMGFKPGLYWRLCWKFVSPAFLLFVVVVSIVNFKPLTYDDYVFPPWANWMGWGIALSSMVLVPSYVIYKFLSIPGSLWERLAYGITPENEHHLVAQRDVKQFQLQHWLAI
Chain of NET (P23975 whole entry): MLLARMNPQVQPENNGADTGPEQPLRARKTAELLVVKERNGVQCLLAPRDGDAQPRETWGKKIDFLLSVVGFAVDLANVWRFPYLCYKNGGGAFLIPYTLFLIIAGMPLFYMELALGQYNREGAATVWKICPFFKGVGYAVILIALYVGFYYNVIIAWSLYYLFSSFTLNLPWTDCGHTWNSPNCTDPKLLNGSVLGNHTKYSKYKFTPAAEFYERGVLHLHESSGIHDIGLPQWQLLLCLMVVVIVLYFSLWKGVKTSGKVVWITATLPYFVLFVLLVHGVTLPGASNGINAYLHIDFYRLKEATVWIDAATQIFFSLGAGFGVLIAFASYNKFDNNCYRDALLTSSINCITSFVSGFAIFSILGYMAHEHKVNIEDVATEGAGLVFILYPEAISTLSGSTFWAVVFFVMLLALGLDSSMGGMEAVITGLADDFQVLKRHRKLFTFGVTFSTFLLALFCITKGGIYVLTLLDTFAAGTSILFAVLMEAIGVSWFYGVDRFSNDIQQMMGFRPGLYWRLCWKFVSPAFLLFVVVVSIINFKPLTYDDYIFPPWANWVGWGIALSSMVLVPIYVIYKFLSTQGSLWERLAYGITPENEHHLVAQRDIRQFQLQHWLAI
T2 sequence (P23975 whole entry): as above

With N=C(N)NCc1ccc(OCCC[18F])c(Br)c1 [imaging agent-1, 1-{3-Bromo-4-[3-[^18F]fluoropropoxy]benzyl}guanidine] the Heart uptake ([1]; 15-minute following administration) was 0.25±0.03 % ID/g, the Heart uptake ([1]; 60-minute following administration) was 0.28±0.03 % ID/g and the “Decrease in heart uptake after sympathetic denervation with 6-hydroxydopamine” value ([2]; 6-OHDA i.v.) was 79%. For the same compound, the “Inhibition of heart uptake by desipramine (uptake 1 blockade)” value ([2]; desipramine 1 mg/kg, 1 hour post dose) was 68%, the “Vmax (uptake kinetics)” value ([3]; SH-SY5Y cells) was 5.18±1.23 pmol/min/million cells and the “Uptake in SH-SY5Y cells in presence of desipramine, a selective NET inhibitor” value ([3]; SH-SY5Y human neuroblastoma cell line) was “inhibited by desipramine”. For the same compound, the “Ratio of myocardial to liver radioactivity” value ([4]; at 4 hours) was “more than two”, the “Peak uptake, liver” value ([4]; average) was “approximately 15.5 % of the injected activity” and the “Peak uptake, urinary bladder” value ([4]; average) was “approximately 18.3 % of the injected activity”. The “Injected dose remaining in the myocardium” value ([4]; decay-corrected, through 4 hours after injection) was “above 1.5 % of ID”, the Blood radioactivity clearance ([4]; human, in vivo) was “cleared quickly” and the Lung activity ([4]; human, in vivo) was “low throughout the study”. For the same compound, the Tolerability ([4]; human, in vivo) was “well tolerated”, the “Injected dose seen in the myocardium initially” value ([4]; initially) was “Approximately 1.6 % of the injected dose (ID)” and the “Ratio of myocardial to liver radioactivity” value ([4]; initially) was “approximately one”. The Adverse events ([4]; twelve healthy subjects) was “No adverse events”, the “Maximum administered dose that does not exceed 10 mSv effective dose” value ([5]; based on average values) was 14 mCi and the “Maximum dose that may be administered to a human without exceeding 50 mSv (5 rem) to the urinary bladder” value ([5]; based on average values) was 12 mCi. The “Mean effective dose as defined in ICRP 60” value [5, 8] was 0.070±0.0059 rem/mCi, the “Mean whole body dose estimate” value [5, 8] was 0.044±0.00031 rem/mCi and the “Predicted human radiation dose estimate, adrenals” value [5, 8] was 0.14±0.027 rem/mCi. The “Predicted human radiation dose estimate, heart wall” value [5, 8] was 0.085±0.014 rem/mCi, the “Predicted human radiation dose estimate, kidneys” value [5, 8] was 0.15±0.088 rem/mCi and the “Predicted human radiation dose estimate, osteogenic cells” value [5, 8] was 0.084±0.0048 rem/mCi. The “Predicted human radiation dose estimate, red bone marrow” value [5, 8] was 0.083±0.0099 rem/mCi, the “Predicted human radiation dose estimate, urinary bladder wall” value ([5]; estimated from cynomolgus monkey PET, OLINDA/EXM) was 0.41±0.089 rem/mCi and the “Global reduction in heart uptake compared to control animals (image based quantification)” value ([6]; rabbits with systemic denervation (6-hydroxydopamine)) was ~80%. The “Uptake in the treated regions after regional denervation” value ([6]; rabbits, phenol regional denervation) was “marked reduction”, the Ki (NET; Example 25, cell membranes over-expressing the human NET) was 5.16 ± 0.93 µM and the Ki (NET; Example 27, ^19F cold analog or NE vs ^3H-desmethylimipramine, membrane overexpressing human NET) was 5.2 ± 1.1 µM. The tissue uptake at 60 min ([7]; rat, heart, other: injection, rats, control group of denervation) was 2.58 ± 0.76 %ID/g, the Heart uptake ([7]; rats, control of uptake 1 blockade) was 1.47±0.22 % ID/g and the Heart uptake ([7]; rats, uptake 1 blocked (desipramine 10 mg/kg ip)) was 1.41±0.07 % ID/g. It also gave a Heart uptake ([7]; sympathetic denervated rats (6-hydroxydopamine)) of 2.18±0.39 % ID/g.
